Results: ChEMBL document CHEMBL1201862, “PubChem BioAssay data set” (2004)
Structures can show the parent of a compound that is named as a salt.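 Five compound concentrations were applied to cells in 96-well plates for 48 hours; endpoints were derived by simple linear interpolation of the resulting dose-response curve. GI50 = concentration required for 50% inhibition of growth.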 Activity calls are given as the source filed them. No stated cut-off is given here; in the data, active = GI50 up to about 1.1 µM and inactive = higher.

Assays:
Assay in all cases: DTP human tumour cell line panel, 48 h
[1] = tested on: M19-MEL
[2] = tested on: NCI-H226
[3] = tested on: DLD-1
[4] = tested on: SNB-78
[5] = tested on: UACC-62
[6] = tested on: KM-20L2
[7] = tested on: RPMI-8226
[8] = tested on: NCI/ADR-RES
[9] = tested on: XF498
[10] = tested on: HOP-18
[11] = tested on: SF-539
[12] = tested on: SK-MEL-5
[13] = tested on: A498
[14] = tested on: LXFL 529
[15] = tested on: MDA-MB-435
[16] = tested on: T47D
[17] = tested on: DU-145
[18] = tested on: PC-3
[19] = tested on: Hs-578T
[20] = tested on: BT-549

Measured: GI50

CC(=O)Oc1ccc(C2COc3cc(OC(C)=O)c(OC(C)=O)cc3C2)cc1 (stereo not drawn)
inactive: [1] 12.9 µM | [2] 20.6 µM | [3] 17.9 µM | [4] 24.3 µM | [5] 10.1 µM | [6] 37.2 µM | [7] 14.9 µM | [8] 20.8 µM | [9] 12.2 µM | [10] 12.8 µM | [11] 11.7 µM | [12] 2.95 µM | [13] 9.04 µM

CC(C)OP(=O)(OC(C)C)c1ncn(-c2ccc([N+](=O)[O-])cc2)n1
inactive: [1] > 100 µM | [2] > 100 µM | [3] > 100 µM | [14] > 100 µM | [5] > 100 µM | [6] > 100 µM | [7] > 100 µM | [9] > 100 µM | [11] > 100 µM | [12] > 100 µM | [13] > 100 µM

CC(C)(CCCCC(C)(C)C1NC(=O)N1)C1NC(=O)N1
inactive: [2] > 10 µM | [15] > 10 µM | [5] > 10 µM | [7] > 10 µM | [16] > 10 µM | [8] > 10 µM | [17] > 10 µM | [11] > 10 µM | [12] > 10 µM | [13] > 10 µM | [18] > 10 µM | [19] > 10 µM

COc1ccc(C(O)/C(=N\NC(N)=S)c2nc3ccc([N+](=O)[O-])cc3nc2O)cc1OC (stereo not drawn)
inactive: [1] > 100 µM | [2] > 100 µM | [3] > 100 µM | [14] > 100 µM | [5] > 100 µM | [6] > 100 µM | [7] > 100 µM | [9] > 100 µM | [10] 44.2 µM | [13] > 100 µM

COc1cc2c(cc1OC)C1Cc3cc(OC)c(OC)cc3C(C2)O1
inactive: [2] > 100 µM | [15] > 100 µM | [5] > 100 µM | [7] 35.2 µM | [16] 58.5 µM | [8] > 100 µM | [17] > 100 µM | [20] > 100 µM | [11] > 100 µM | [18] > 100 µM

CCCc1c(-c2ccccc2)[nH]c2ccccc2c1=O
inactive: [2] > 100 µM | [15] 37.3 µM | [5] 40.5 µM | [7] 54.6 µM | [16] 25.9 µM | [17] > 100 µM | [20] 40.5 µM | [11] 33.8 µM | [13] 29 µM | [18] > 100 µM | [19] > 100 µM

ClCCCN1CCCCC1CCl (stereo not drawn)
inactive: [1] > 100 µM | [3] > 100 µM | [14] > 100 µM | [5] 43.7 µM | [6] > 100 µM | [7] > 100 µM | [10] > 100 µM | [11] > 100 µM | [12] > 100 µM | [13] > 100 µM

N#CCCN(c1ccc(/C=N/c2cccc([N+](=O)[O-])c2)cc1)S(=O)(=O)c1ccccc1
inactive: [2] 56.9 µM | [3] > 100 µM | [14] > 100 µM | [4] > 100 µM | [5] > 100 µM | [7] > 100 µM | [9] > 100 µM | [11] > 100 µM | [13] > 10 µM

C[C@]12CC[C@H]3[C@@H](CC=C4C[C@@H](O)CC[C@@]43C)[C@@H]1C/C(=C\c1ccc([N+](=O)[O-])cc1)[C@@H]2O
inactive: [2] 16.8 µM | [15] 22.5 µM | [5] 10.6 µM | [7] 7.48 µM | [16] 4.38 µM | [8] 12.5 µM | [17] 11 µM | [20] 14.6 µM | [11] 17.1 µM | [12] 6.81 µM | [13] 15.1 µM | [18] 14.3 µM | [19] 16.9 µM

CN1CCc2[nH]c3ccccc3c2C1
inactive: [1] > 100 µM | [2] > 100 µM | [3] > 100 µM | [4] > 100 µM | [5] > 100 µM | [6] > 100 µM | [7] > 100 µM | [8] > 100 µM | [9] > 100 µM | [10] > 100 µM | [11] > 100 µM | [12] > 100 µM | [13] > 100 µM

CSCSCC(CO)NC(=O)/C(C)=C\c1c(C)[nH]c(=O)[nH]c1=O (stereo not drawn)
inactive: [1] > 250 µM | [2] > 250 µM | [3] > 250 µM | [4] > 250 µM | [5] > 250 µM | [6] > 250 µM | [7] > 250 µM | [8] > 250 µM | [9] > 64.6 µM | [10] > 250 µM | [11] > 250 µM | [12] > 250 µM | [13] > 250 µM

O=C(N[C@H]1c2ccsc2/C(=N/O)[C@H]1O)C(F)(F)F
inactive: [2] > 100 µM | [15] > 100 µM | [5] > 100 µM | [16] > 100 µM | [8] > 100 µM | [17] > 100 µM | [20] > 100 µM | [11] > 100 µM | [12] > 100 µM | [13] > 100 µM | [18] > 100 µM | [19] > 100 µM

Cc1cc(C)c(NC(=O)/C=C/c2ccccc2)c(C)c1
inactive: [2] > 100 µM | [15] > 100 µM | [5] 22.9 µM | [7] > 100 µM | [8] 29.3 µM | [20] > 100 µM | [11] 59 µM | [18] > 100 µM | [19] 57.7 µM

CCCCn1cc[n+](-c2nc3ccccc3n2C)c1
inactive: [2] > 100 µM | [3] > 100 µM | [14] > 100 µM | [4] > 100 µM | [5] > 100 µM | [6] > 100 µM | [7] > 100 µM | [10] > 100 µM | [11] > 100 µM | [12] > 100 µM

c1ccc(Nc2nnc(-c3nsc4ccccc34)o2)cc1
inactive: [1] > 100 µM | [14] 85.5 µM | [4] 89.5 µM | [5] > 100 µM | [6] > 100 µM | [7] > 100 µM | [10] > 100 µM | [11] > 100 µM | [12] > 100 µM

CNCCC=C1c2ccccc2CCc2ccccc21 [NORTRIPTYLINE HYDROCHLORIDE]
inactive: [2] 22.1 µM | [15] 13.5 µM | [5] 14.8 µM | [7] 12.6 µM | [16] 9.23 µM | [8] 15.7 µM | [17] 14.5 µM | [20] 15.5 µM | [11] 28.5 µM | [12] 11.6 µM | [13] 15.4 µM | [18] 14.3 µM | [19] 19.6 µM
